The values below come from patent US5695751A, “Enhancing delivery of large neutral amino acid drugs” (Cornell Research Foundation, Inc., priority 1995, dated 1997).

The subject of test [1] is idiopathic Parkinson's disease. Kind of test: Patient with idiopathic Parkinson's disease, Examples XVI and XXIII. The test is classed as in vivo, human patient. How it is done: A person presenting with symptoms of tremor, stiff hands, and funny ("cogwheel") gait is diagnosed by clinical examination as having idiopathic Parkinson's disease. Dosage of levodopa/carbidopa of 400/100 mg/day are built up to.

Test [2] relates to L-amino acid oxidase. It is filed as biochemical, snake venom. Particulars: substrate of L-amino acid oxidase, pH 7.5, 37° C. How it is done:
Km and Vmax were determined by plotting 1/rate vs. 1/[substrate] to give a line which intersects the Y-axis at 1/Vmax and intersects the X-axis at -1/Km. The reaction mixtures utilized contained in a final volume of 1.0 ml, the following: 100 mM glycylglycine buffer, pH 7.5, 0.3 mM NADH, 2 mM α-ketoglutarate, 0.5 mM ADP, 20 I.U. glutamate dehydrogenase (Sigma Chemicals, St. Louis, Mo.), and L-amino acid substrate or melphalan at concentrations ranging from 0.1 to 16 mM. The temperature was 37° C. In this system L-amino acid oxidase converted L-amino acid or melphalan to the corresponding α-keto acid and ammonia; ammonia then reacted stoichiometrically with α-ketoglutarate and NADH in a reaction catalyzed by glutamate dehydrogenase to give […] and glutamate. The oxidation of NADH to NAD^+ is accompanied by a decrease in OD340, which was monitored and used to determine the amount of ammonia made available for reaction (1 mM NADH converted to NAD^+ causes a ΔOD340 of 6.2 in the 1 cm cuvettes used).

The test system of test [3] is pineoblastoma brain tumor. Briefly: Patient with pineoblastoma brain tumor, Example XVII. It is filed as in vivo, human patient. On the procedure: A person presents with symptoms of headaches, inability to look upward and vomiting and is diagnosed by magnetic resonance imaging as having pineoblastoma brain tumor. Daily treatment consists of administration of 35 units/ml of plasma of L-amino acid oxidase intravenously followed at 12 hours by intravenous administration of 0.3 mg/kg of L-DON.
When L-buthionine-S-sulfoximine is administered orally 3 hours before each administration of L-DON, the dosage of L-DON can be reduced to 0.1 mg/kg with the same results.

Test [4] concerns medulloblastoma brain tumor. Kind of test: Patient with medulloblastoma brain tumor, Example XVIII. It is filed as in vivo, human patient. Particulars: LOX 35 units/ml of plasma i.v., 12 hours later L-DON 0.3 mg/kg i.v. On the procedure:
A patient presents with symptoms of headaches, vomiting and ataxic gait and is diagnosed by magnetic resonance imaging as having medulloblastoma brain tumor. Daily treatment consists of administration of 35 units/ml of plasma of L-amino acid oxidase intravenously followed in 12 hours by administration of 0.3 mg/kg of L-DON intravenously.

Test [5] has as its system choriocarcinoma. Briefly: Patient with choriocarcinoma, Example XXII. The test is classed as in vivo, human patient. As to conditions: LOX 35 units/ml of plasma i.v., 5 hours later L-alanosine 1000 mg/m^2 i.v. How it is done: A patient presents with symptoms of headaches, vomiting and double vision and is diagnosed by magnetic resonance imaging as having choriocarcinoma. Daily treatments consist of 35 units/ml of plasma of L-amino acid oxidase intravenously followed in 5 hours by administration of 1000 mg/m^2 of L-alanosine intravenously.

For test [6], the system named is supratentorial high grade glioma brain tumor. Briefly: Patient with supratentorial high grade glioma, radiation therapy, Example XXIV. It is filed as in vivo, human patient. Particulars: LOX 35 units/ml of plasma i.v., 3 hours later oral L-buthionine-S-sulfoximine, 5 days, then 5400 cGy. How it is done: A patient is diagnosed by magnetic resonance imaging as having supratentorial high grade glioma brain tumor. Daily treatment consists of 35 units/ml of plasma of L-amino acid oxidase administered intravenously followed in 3 hours by administration orally of L-buthionine-S-sulfoximine. After 5 days, radiation therapy is implemented using a linear accelerator at a total dose of 5400 cGy at a rate of 180 cGY/day in 30 fractions over 30 days. Survival 10% longer than the average survival in the case of radiation therapy of glioma is noted.

For test [7], the system named is glioblastoma multiforme. Briefly: Patient with glioblastoma multiforme, Example XIX. It is filed as in vivo, human patient. Particulars: LOX 35 units/ml of plasma i.v., 10 hours later acivicin 30 mg/kg i.v. On the procedure: A patient presents with symptoms of headaches, seizures and left sided weakness and is diagnosed by magnetic resonance imaging as having glioblastoma multiforme. Daily treatment consists of administration of 35 units/ml of plasma of L-amino acid oxidase intravenously followed in 10 hours by administration of 30 mg/kg of acivicin intravenously.

For test [8], the system named is germinoma. Briefly: Patient with germinoma, Example XX. It is filed as in vivo, human patient. Particulars: LOX 35 units/ml of plasma i.v., 5 hours later acivicin 30 μg/kg i.v. On the procedure: A patient presents with symptoms of headaches, vomiting and double vision and is diagnosed by magnetic resonance imaging as having a germinoma. Daily treatment consists of 35 units/ml of plasma of L-amino acid oxidase intravenously followed in 5 hours by administration of 30 μg/kg of acivicin intravenously.

The subject of test [9] is anaplastic astrocytoma. Briefly: Patient with anaplastic astrocytoma, Example XXI. It is filed as in vivo, human patient. Particulars: LOX 35 units/ml of plasma i.v., 5 hours later azaserine 10 μg/kg i.v. On the procedure: A patient presents with symptoms of headaches, seizures and vomiting and is diagnosed by magnetic resonance imaging as having anaplastic astrocytoma. Daily treatments consist of 35 units/ml of plasma of L-amino acid oxidase intravenously followed in 5 hours by administration of 10 μg/kg of azaserine intravenously.

`N[C@@H](Cc1cc(CP(=O)(O)O)cc(-c2cccc3ccccc23)c1)C(=O)O` [5-(1-naphthyl)-3-(phosphonomethyl) phenylalanine] came in with a Tremor suppression lasting in test [1] (8 mg/kg orally 12 hours after LOX 25 units/ml of plasma i.v.) of 12 h.

Regarding `C[C@H](N)C(=O)O` [L-Alanine], the Vmax in [2] came to 0 µmol/min/mg. For `[N-]=[N+]=CC(=O)CC[C@H](N)C(=O)O` [L-DON, 6-diazo-5-oxo-L-norleucine], the “dosage of L-DON giving the same results” value in [3] (L-buthionine-S-sulfoximine orally 3 hours before each L-DON) is 0.1 mg/kg. Besides, the “amelioration of symptoms after 7 days” value in test [3] (LOX 35 units/ml of plasma i.v., 12 hours later L-DON 0.3 mg/kg i.v., daily) was “ability to look upward and less vomiting”. Further, the “symptoms after 7 days of treatment” value in test [4] is listed as “amelioration of symptoms”. Take `CC[C@H](C)[C@H](N)C(=O)O` [L-Isoleucine]: in test [2], the Km stood at 2050 µM and the Vmax worked out at 33 µmol/min/mg. The like results for `CC(C)C[C@H](N)C(=O)O` [L-Leucine] were, in that order, 600 µM and 100 µmol/min/mg.

With `CSCC[C@H](N)C(=O)O` [L-Methionine], in test [2], the Km is 470 µM and the Vmax came to 70 µmol/min/mg. Turning to `N[C@@H](Cc1ccccc1)C(=O)O` [L-Phenylalanine], in test [2], the Km came to 130 µM and the Vmax stood at 33 µmol/min/mg.

Regarding `N[C@@H](Cc1c[nH]c2ccccc12)C(=O)O` [L-Tryptophan], in test [2], the Km amounted to 220 µM and the maximal velocity (Vmax) is 43 µmol/min/mg. Taken in the same sequence, the figures for `N[C@@H](Cc1ccc(O)cc1)C(=O)O` [L-Tyrosine] were 130 µM and 37 µmol/min/mg. Taken in the same sequence, the figures for `CC(C)[C@H](N)C(=O)O` [L-Valine] were 19000 µM and 13 µmol/min/mg. In the case of `N[C@@H](CN(O)N=O)C(=O)O` [L-alanosine], the “symptoms after 7 days of treatment” value in test [5] was “amelioration of symptoms”. For the molecule `CCCC[S@](=N)(=O)CC[C@H](N)C(=O)O` [L-buthionine-S-sulfoximine], the “Survival longer than the average survival with radiation therapy of glioma” value in test [6] is 10%. For `N[C@H](C(=O)O)[C@@H]1CC(Cl)=NO1` [acivicin, L-[αS,5S]-α-amino-3-chloro-4,5-dihydro-5-isoxazoleacetic acid], the “symptoms after 7 days of treatment” value in test [7] and in test [8] was “amelioration of symptoms” in each case. For `[N-]=[N+]=CC(=O)OC[C@H](N)C(=O)O` [azaserine, O-diazoacetyl-L-serine], the “symptoms after 7 days of treatment” value in [9] is on record as “amelioration of symptoms”. For levodopa/carbidopa, the “symptoms of Parkinson's disease” value in test [1] (levodopa/carbidopa 400/100 mg/day, LOX 25 units/ml of plasma i.v. 15 hours before) is “Lessening of symptoms”.
